{"source": "patent US11202766B1", "about": "“Pharmaceutical compositions including hydrocodone bitartrate and guaifenesin” (priority 2019, dated 2021)", "assay": "clinical", "conditions": "for Tmax / half-life: Mean; for Kel of Hydrocodone bitartrate, Mean: oral; for half-life: t1/2 of Hydrocodone bitartrate", "procedure": "A randomized, open-label, balanced, two-treatment, two-period, two sequence, single-dose, two-way crossover oral food effect study was conducted comparing administration of rapidly dissolving pharmaceutical composition tablets including 5 mg hydrocodone bitartrate and 400 mg guaifenesin per tablet to healthy subjects under fed and fasting conditions. The objective of this study was to evaluate the effect of food (high fat, high calorie breakfast) on the rate and extent of absorption of a single oral dose of the rapidly dissolving pharmaceutical composition including 5 mg hydrocodone bitartrate and 400 mg guaifenesin.\nHealthy adult participants were randomized into Treatment A or Treatment B during two study periods (Period 1 and Period 2). Participants received one tablet of the rapidly dissolving pharmaceutical composition (including 5 mg hydrocodone bitartrate and 400 mg guaifenesin per tablet) in each study period with a seven-day (washout) interval between study periods. Participants randomized to Treatment A consumed a high fat, high calorie breakfast (1000 kcal) 30 minutes prior to dosing. Participants randomized to Treatment B fasted overnight and at the time of dosing. Participants were housed at the investigative site not less than 10.5 hours pre-dose until 24 hours post-dose in each period.\nTwenty-one blood samples were collected from each subject during each study period. The venous blood samples (9 mL each) were drawn at pre-dose [(0.00) within 1.00 hour prior to dosing] and at 0.16, 0.33, 0.50, 0.66, 0.83, 1.00, 1.25, 1.50, 2.00, 3.00, 4.00, 5.00, 6.00, 7.00, 8.00, 10.00, 12.00, 16.00, 20.00 and 24.00 hours post-dose. After the collection of blood samples from all the subjects at each time point, samples were centrifuged at 4000 RPM for 10 minutes at 5° C. All plasma samples were then transferred into three polypropylene tubes. The plasma samples were stored at −20±10° C. for a maximum period of 12.0 hours.\nPharmacokinetic parameters were measured for fed and fasting conditions of subjects for both hydrocodone bitartrate and guaifenesin. Plasma samples were assayed for hydrocodone and guaifenesin using an API 4000® LC-MS/MS System, commercially available from AB Sciex LP, Concord, Ontario, Canada. During analysis, standard and quality control samples were distributed throughout each batch of study samples analyzed. No access to the randomization schedule was available until all of the analysis was completed. All the values below the limit of quantification (LOQ) were set to “zero” for all pharmacokinetic and statistical calculations. Any missing sample was reported as “M”. Incurred sample reanalysis was performed as per the current version of ICON SOP BC06, “Incurred Sample Reanalysis Procedures”.\nThe pharmacokinetic parameters for hydrocodone and guaifenesin in plasma were computed using SAS™ v9.3 software, commercially available from SAS Institute, Inc., Cary, N.C., USA.\nThe plasma pharmacokinetic parameters were determined for Cmax, Tmax, AUC0→t, and AUC0→∞. The Cmax and Tmax values were directly determined from the plasma concentration versus time curves. The AUC0→t was calculated by the linear trapezoidal rule. The AUC0→∞ was estimated by summing the area from AUC0→t and […]. The half life, t1/2, was calculated using the formula t1/2=ln 2/Kel, wherein Kel is the slope of the terminal portion of the plasma concentration versus time curve, obtained by linear regression. Natural Logarithmic transformation was done before data analysis for Cmax, AUC0→t, and AUC0→∞. Tmax, t1/2, and Kel were analyzed without transformation.\nA paired t-test was used to assess effects between the two arms of the study. Intra-subject variability in terms of the overall percentage coefficient of variation (% CV) were also evaluated for each PK parameter. […] All values below the limit of quantification (LOQ) were set to “zero” for all pharmacokinetic and statistical calculations.", "key": {"[1]": {"conditions": "fed:fasting, ln-transformed data"}}, "data": [{"smiles": "COc1ccccc1OCC(O)CO", "note": "(centres unmarked) [Guaifenesin, guaifenesin]", "values": [{"measurement": "t1/2 of Guaifenesin, Mean", "setting": "human, in vivo, po", "result": 1.05, "unit": "h"}, {"measurement": "Tmax", "setting": "human, in vivo, po, Tmax of Guaifenesin", "result": 0.64, "unit": "h"}]}, {"smiles": "COc1ccc2c3c1O[C@H]1C(=O)CC[C@H]4[C@@H](C2)N(C)CC[C@]314.O=C(O)C(O)C(O)C(=O)O", "note": "[Hydrocodone bitartrate, hydrocodone bitartrate]", "values": [{"measurement": "Kel of Hydrocodone bitartrate, Mean", "setting": "Fasting Condition (Treatment B), one tablet 5 mg hydrocodone bitartrate/400 mg guaifenesin", "result": 0.14, "unit": "h⁻¹"}, {"measurement": "Kel of Hydrocodone bitartrate, Mean", "setting": "Fed Condition (Treatment A), one tablet 5 mg hydrocodone bitartrate/400 mg guaifenesin", "result": 0.14, "unit": "h⁻¹"}, {"measurement": "Ratio Between Treatment A: Treatment B, Kel of Hydrocodone Bitartrate, Mean", "setting": "fed:fasting", "result": 0.98}, {"measurement": "Ratio Between Treatment A: Treatment B, Tmax of Hydrocodone Bitartrate, Mean", "setting": "fed:fasting", "result": 1.51}, {"measurement": "Ratio Between Treatment A: Treatment B, t1/2 of Hydrocodone Bitartrate, Mean", "setting": "fed:fasting", "result": 1.11}, {"measurement": "Ratio Between Treatment A: Treatment B, *AUC0→t of Hydrocodone Bitartrate, Mean", "setting": "[1]", "result": 1.02}, {"measurement": "Ratio Between Treatment A: Treatment B, *AUC0→∞ of Hydrocodone Bitartrate, Mean", "setting": "[1]", "result": 1.02}, {"measurement": "Ratio Between Treatment A: Treatment B, *Cmax of Hydrocodone Bitartrate, Mean", "setting": "[1]", "result": 1.03}, {"measurement": "Tmax", "setting": "human, in vivo, po, Tmax of Hydrocodone bitartrate, Fasting Condition (Treatment B), one tablet 5 mg hydrocodone bitartrate/400 mg guaifenesin", "result": 1.61, "unit": "h"}, {"measurement": "Tmax", "setting": "human, in vivo, po, Tmax of Hydrocodone bitartrate, Fed Condition (Treatment A), one tablet 5 mg hydrocodone bitartrate/400 mg guaifenesin", "result": 2.08, "unit": "h"}, {"measurement": "half-life", "setting": "human, in vivo, po, Fasting Condition (Treatment B), one tablet 5 mg hydrocodone bitartrate/400 mg guaifenesin", "result": 297, "unit": "min"}, {"measurement": "half-life", "setting": "human, in vivo, po, Fed Condition (Treatment A), one tablet 5 mg hydrocodone bitartrate/400 mg guaifenesin", "result": 317, "unit": "min"}]}]}
